The text below walks through data of patent US20090062400A1 (priority 2007, published 2009).

For series [1] the following is noted: double-blind, placebo-controlled trial; cited from earlier work.
For series [2], the system named is retinal ganglion cells. Conditions: Wistar rats, 0.5 and 3 mg/kg IP once daily, 6 weeks.
Experimental: Male Wistar rats weighing 375-400 gm are treated under procedures approved and monitored by the Animal Care Committee of the Tel-Aviv University School of Medicine and following the procedures outlined in the Association for Research in Vision and Opthalmology Statement for the use of animals in ophthalmic and vision research. Animals are housed with a 14 hour light/10 hour dark cycle with standard chow and water ad libitum.
Glaucoma is induced in one eye of rats by using the translimbal laser photocoagulation model developed by Levkovitch-Verbin. This model can produce elevated IOP and typical glaucomatous optic nerve damage in most treated eyes.
In this model, the outflow channels of the rat eye are treated by argon laser at 532 nm. […] IOP is measured with Tonopen XL under the above anaesthesia in both eyes before and immediately after laser treatment and weekly thereafter. Each time ten measurements are obtained on each eye and the mean value is calculated. […]
The volume of administration is 2 ml/kg. […] (calculated for a rat weighing 400 g). […]
Thirty-two (32) images of ×40 magnification from each retina (both eyes for each rat) are photographed using a fluorescent microscope, and the number of surviving retinal ganglion cells are counted for each eye. The number of RGCs in the experimental eye are compared to the fellow control eye to calculated the RGC loss. […]
Series [3] relates to retinal ganglion cells (RGCs). The following applies: Long Evans rats, IP 30 minutes before and 2 hours after ischemia, then once daily.
Experimental: Thirty (30) male pigmented rats (Long Evans) are obtained and divided evenly into 3 groups, (2 test groups and 1 control group) 10 animals in each group. Retinal ischemia is induced by a 100/200-mmHg hyperpressure saline column applied to the eye through a needle for 60 minutes.
For the control group, the vehicle (saline solution) is administered IP 30 minutes before ischemia and 2 hours after ischemia.
Electroretinographic (ERG) measurements of a- and b-wave implicit times and peak amplitudes under scotopic conditions at maximal intensity are taken at baseline (just before ischemia), and 4-7 days after reperfusion.
Sampling of fixed flatmount retinas and histological processing for annexin-5 labeling or TUNEL labeling.
The subject of series [4] is retinal ganglion cells. Conditions: rats, rasagiline in the drinking water.
Text: Chronic, moderately elevated IOP is produced unilaterally by cautery of three episcleral vessels; the contralateral eye served as the control. To perform the cautery, sutures are placed in the lids to keep the eye open and in the bulbar conjunctiva to manipulate the globe. Three of the four to five major trunks formed by limbal-derived veins are exposed at the equator of the eye by incising the conjunctiva. Each vessel is lifted with a small muscle hook and cauterized by direct application of an ophthalmic, disposable cautery against the muscle hook. Immediate retraction and absence of bleeding of the cauterized ends of the vessels are noted as successful cauterization. After surgery, eyes are treated topically with bacitracin-neomycin-polymyxin for a few days during recovery.
One group is treated with rasagiline, in the drinking water, for a period of time. Another group is not treated with rasagiline, but receives drinking water on the same schedule. Once a month, each animal is anesthetized and IOP is determined bilaterally. The animals are awake within 15 minutes of the IOP measurement. On any given eye, three to five tonometer readings are taken and averaged. […]
Labeled retinal ganglion cells are counted using fluorescence microscopy in 12 fields of the retina.
For series [5] the following is noted: rats. Here is the method:
Rats were sacrificed 2-3 hours after last administration. According to preliminary experiment, in order to obtain enough substance for MAO and protein analysis, 4 retinas (from 2 rats) were combined into one sample, (3 retina samples for MAO per each dose groups). The 6 brains and 6 livers were analyzed separately.

Series [6] deals with retinal ganglion cells (RGCs). Conditions: Lewis rats, subcutaneous injection, single or repeated (treatment and prevention protocols).
The test system of series [7] is retinal ganglion cells. The following applies: adult rats, rasagiline before intravitreal SSP.
Experimental: The effect of rasagiline on RGC survival is tested in a rat model of RGC survival.
In this well-established model it is used to induce apoptosis of retinal ganglion cells.
Adult rats are used in all rat experiments.
Rats receive a dose of intravitreal SSP in PBS. Animals are imaged immediately and up to 6 h, after which they are sacrificed for histology.
To examine the effect of rasagiline on the survival of RGCs, one group of rats are treated with rasagiline for a period of time before SSP. A further group of naïve rats receives no rasagiline.
The animal is positioned before the cLSO so that the interior of the eye is imaged. An Argon laser wavelength of 488 nm is focused into a small spot and scanned across the retina by a pair of mirrors to excite the administered annexin 5-bound fluorophore. The fluorescence is detected by a solid-state photodetector.
For imaging, animals are held in a stereotaxic frame and their pupils dilated. Videos of scanned retinal areas are assessed for fluorescence. All animals have baseline images recorded before receiving intravitreal injections of Alexa Fluor 488-labeled annexin-5. […]
Fluorescent retinas are assessed by using a confocal laser scanning microscope.
The number of stained RGC and annexin 5-labeled apoptotic RGCs are counted with microscopy analysis software.
The conditions of series [8]: patients with glaucomatous optic neuropathy, vs placebo.
For series [9] the following is noted: rasagiline alone; cited from earlier work.
For series [10] the following is noted: retinal degeneration slow mouse; cited from earlier work.

Regarding `C#CCN(C)[C@H](C)Cc1ccccc1` [Selegiline], in [1], the “effectiveness in treating ALS” value is “ineffective”.
Regarding `C#CCN[C@@H]1CCc2ccccc21` [Rasagiline, R(+)—N-propargyl-1-aminoindan], in the series on retinal ganglion cells [2], the “effect in the experimental glaucoma model” value is listed as “positive effect” and the “ganglion survival in the treated group” value is listed as “More ganglion survival”. Besides, the “recovery of the retinal electric activity and/or number of apoptotic RGCs after transient ischemia” value in series [3] is “positive effect”. The “effect in the chronic, moderately elevated IOP model (RGC survival)” value in the series on retinal ganglion cells [4] is on record as “positive effect”. Moreover, in [5] (preliminary test performed for 2 days, eye drops), the “irritation to the eye” value is “did not cause irritation to the eye”. The “absorption after intraocular administration” value in series [5] (eye drops 0.0165-7.9 mg/kg/day, 10 days) is on record as “absorbed in all doses”. Besides, the “effect in the IOP model (RGC survival)” value in series [6] is listed as “positive effect”. Further, in the series on retinal ganglion cells [7], the “effect in the SSP model (RGC apoptosis)” value is recorded as “positive effect”. Further, in series [8], the “atrophy of the optic nerve” value is listed as “reduced atrophy”; the “preservation of the retina and of the structural integrity of the optic nerve” value is recorded as “increased preservation”; the “protection against loss of RGCs” value was “increased protection”; the visual field loss result is listed as “reduced visual field loss”. Also, the “effectiveness in the ALS mouse model” value in [9] is “effective treatment”.
Consider `C[C@]12C=CC(=O)C=C1CC[C@@H]1[C@@H]2[C@@H](O)C[C@@]2(C)[C@H]1CC[C@]2(O)C(=O)CO` [prednisolone], for which the “effect on retinal degeneration” value in series [10] is given as “unsuccessful”.
